Reference: patent US20200223889A1, “Bicyclic Compounds Capable of Binding to Melanocortin 4 Receptor” (Novo Nordisk A/S, priority 2017, published 2020)
Starred links: 1 amine or outer side, 2 acyl side, 3 side chain; linkers in the order of their positions; H or OH if unused. Positions of bridges follow the written chain, without caps; N, C: chain ends. Non-standard residues stand in square brackets, D forms with d. Residues, ends and D or L forms follow the SMILES beside them. 2Nal = N[C@@H](Cc1ccc2ccccc2c1)C(=O)O; Cit = NC(=O)NCCC[C@H](N)C(=O)O; Agp = N=C(N)NC[C@H](N)C(=O)O; Pen = CC(C)(S)[C@H](N)C(=O)O; d(hCys) = N[C@H](CCS)C(=O)O; X1 = C(CN[*:2])CS[*:1]; Aib = CC(C)(N)C(=O)O

Columns and labels:
human MC4R [1] = biological target: T1, human MC4R (Homo sapiens, UniProt P32245); assay: 125NDP-α-MSH competitive binding to membranes of BHK cells expressing human MC4 receptor (filtration assay); details: human MC4R, BHK cell membranes, 125NDP-α-MSH radioligand; read-out: MC4R binding Ki
T1 construct: expressed in transfected cells
T1 sequence (P32245 whole entry): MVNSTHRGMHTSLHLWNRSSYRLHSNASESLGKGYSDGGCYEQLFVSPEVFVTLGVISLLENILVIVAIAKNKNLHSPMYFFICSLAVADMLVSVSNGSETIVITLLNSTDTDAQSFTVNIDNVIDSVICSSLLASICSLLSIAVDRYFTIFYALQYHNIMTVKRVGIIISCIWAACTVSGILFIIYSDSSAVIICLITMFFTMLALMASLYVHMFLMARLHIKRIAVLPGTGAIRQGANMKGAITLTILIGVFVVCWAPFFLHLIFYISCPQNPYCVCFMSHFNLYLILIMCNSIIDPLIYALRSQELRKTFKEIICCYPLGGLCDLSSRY
Summary of the method: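 Displacement of ^125NDP-α-MSH (apx. […] final) was measured by filtration after 2 h at 25 °C, using diluted membranes of stably transfected BHK cells in pH 7.0 HEPES buffer. Compounds spanned 1 μM to 0.001 nM; binding curves were analysed by non-linear regression.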

human MC4R [2] = biological target: T1, human MC4R; assay: Functional cAMP assay (CisBio HTRF) in BHK cells expressing human MC4R; assay type: cell-based; details: for EC50: BHK cells expressing human MC4R, '>' = highest dose used with no response, read-out: MC4R cAMP EC50; for MC1R/MC4R cAMP EC50 ratio: MC1R cAMP EC50 divided by MC4R cAMP EC50
Summary of the method: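 Stably transfected BHK cells expressing human MC1R or MC4R; cAMP quantified by HTRF (cAMP-d2/cryptate) after 30 min compound stimulation at 25 °C in DMEM-based buffer with 1 mM IBMX. Compounds were prepared as 10-fold serial dilutions starting at 2 μM (working solution, 2× final). Readout after 1 h at 25 °C; non-linear regression.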

Row | Ki (human MC4R [1]) [nM] | EC50 (human MC4R [2]) [nM] | MC1R/MC4R cAMP EC50 ratio (human MC4R [2]) | Structure (SMILES)
1 | 0.19 | 0.59 | 74 | C[C@@H]1NC(=O)[C@@H]2CSSC[C@H](NC(=O)[C@H](Cc3c[nH]c4ccccc34)NC(=O)[C@H](CCCCN)NC(=O)[C@H](CCCCN)NC(=O)[C@H](CCCCN)NC1=O)C(=O)N[C@H](CCCCN)C(=O)N[C@@H](Cc1c[nH]cn1)C(=O)N[C@H](Cc1ccccc1)C(=O)N[C@@H](Cc1c[nH]cn1)C(=O)N[C@@H](Cc1c[nH]c3ccccc13)C(=O)N2 [Chem. 84, c[c[Cys-D-Lys-His-D-Phe-His-Trp- Cys]-Ala-Lys-Lys-Lys-Trp]] (cyclo(AKKKWC[dK]H[dF]HWC); disulfide 6-12)
2 | 0.05 | 0.08 | 415 | C[C@@H]1NC(=O)[C@@H]2CSSC[C@H](NC(=O)[C@H](CCCNC(=N)N)NC(=O)[C@H](CCCCN)NC(=O)[C@H](CCCCN)NC(=O)[C@H](CCCCN)NC1=O)C(=O)N1CCC[C@H]1C(=O)N[C@@H](Cc1c[nH]cn1)C(=O)N[C@H](Cc1ccccc1)C(=O)N[C@@H](Cc1c[nH]cn1)C(=O)N[C@@H](Cc1c[nH]c3ccccc13)C(=O)N2 [Chem. 71, c[c[Cys-Pro-His-D-Phe-His-Trp-Cys]- Ala-Lys-Lys-Lys-Arg]] (cyclo(AKKKRCPH[dF]HWC); disulfide 6-12)
3 | 0.03 | 0.02 | 58 | C[C@@H]1NC(=O)[C@@H]2CSSC[C@H](NC(=O)[C@H](Cc3ccc4ccccc4c3)NC(=O)[C@H](CCCNC(=N)N)NC(=O)[C@@H](Cc3ccccc3)NC(=O)[C@H](Cc3c[nH]cn3)NC1=O)C(=O)N[C@@H](C)C(=O)N[C@@H](CCCCN)C(=O)N[C@@H](CCCCN)C(=O)N[C@@H](CCCCN)C(=O)N[C@@H](Cc1c[nH]c3ccccc13)C(=O)N2 [Chem. 79, c[c[Cys-Ala-His-D-Phe-Arg-2-Nal- Cys]-Ala-Lys-Lys-Lys-Trp]] (cyclo([2Nal]CAKKKWCAH[dF]R); disulfide 2-8)
4 | 0.07 | 0.22 | 399 | C[C@@H]1NC(=O)[C@@H]2CSSC[C@H](NC(=O)[C@H](CCCNC(=N)N)NC(=O)[C@H](Cc3c[nH]cn3)NC(=O)[C@H](CCCCN)NC(=O)[C@H](CCCCN)NC1=O)C(=O)N1CCC[C@H]1C(=O)N[C@@H](Cc1c[nH]cn1)C(=O)N[C@H](Cc1ccccc1)C(=O)N[C@@H](Cc1c[nH]cn1)C(=O)N[C@@H](Cc1c[nH]c3ccccc13)C(=O)N2 [Chem. 95, c[c[Cys-Pro-His-D-Phe-His-Trp-Cys]- Ala-Lys-Lys-His-Arg]] (cyclo(AKKHRCPH[dF]HWC); disulfide 6-12)
5 | 0.03 | 0.04 | 456 | C[C@@H]1NC(=O)[C@H]2NC(=O)[C@H](Cc3c[nH]c4ccccc34)NC(=O)[C@H](Cc3c[nH]cn3)NC(=O)[C@@H](Cc3ccccc3)NC(=O)[C@H](Cc3c[nH]cn3)NC(=O)[C@@H]3CCCN3C(=O)[C@H](CSSC2(C)C)NC(=O)[C@H](CCCNC(=N)N)NC(=O)[C@H](CCCCN)NC(=O)[C@H](CCCCN)NC(=O)[C@H](CCCCN)NC1=O [Chem. 93, c[c[Cys-Pro-His-D-Phe-His-Trp-Pen]- Ala-Lys-Lys-Lys-Arg]] (cyclo(AKKKRCPH[dF]HW[Pen]); disulfide 6-12)

Second part, the molecule before the results:

Row | Structure (SMILES) | Ki (human MC4R [1]) [nM] | EC50 (human MC4R [2]) [nM] | MC1R/MC4R cAMP EC50 ratio (human MC4R [2])
6 | N=C(N)NCCC[C@@H]1NC(=O)[C@@H]2CSSC[C@H](NC(=O)[C@H](Cc3c[nH]c4ccccc34)NC(=O)[C@H](CCCNC(N)=O)NC(=O)[C@@H](Cc3ccccc3)NC(=O)[C@H](Cc3c[nH]cn3)NC1=O)C(=O)N[C@@H](CCCNC(=N)N)C(=O)N[C@@H](Cc1c[nH]cn1)C(=O)N[C@H](Cc1ccccc1)C(=O)N[C@@H](CCCNC(N)=O)C(=O)N[C@@H](Cc1c[nH]c3ccccc13)C(=O)N2 [Chem. 54, c[c[Cys-Arg-His-D-Phe-Cit-Trp-Cys]- Arg-His-D-Phe-Cit-Trp]] (cyclo(CRH[dF][Cit]WCRH[dF][Cit]W); disulfide 1-7) | 0.21 | 0.04 | 7
7 | CC(C)[C@@H]1NC(=O)[C@@H]2CSSC[C@H](NC(=O)[C@H](Cc3c[nH]c4ccccc34)NC(=O)[C@H](CCCNC(=N)N)NC(=O)[C@@H](Cc3ccccc3)NC(=O)[C@H](Cc3c[nH]cn3)NC1=O)C(=O)N[C@@H](C(C)C)C(=O)N[C@@H](Cc1c[nH]cn1)C(=O)N[C@H](Cc1ccccc1)C(=O)N[C@@H](CCCNC(=N)N)C(=O)N[C@@H](Cc1c[nH]c3ccccc13)C(=O)N2 [Chem. 36, c[c[Cys-Val-His-D-Phe-Arg-Trp-Cys]- Val-His-D-Phe-Arg-Trp]] (cyclo(CVH[dF]RWCVH[dF]RW); disulfide 1-7) | 0.12 | 0.04 | 26
8 | CC(=O)N[C@@H](Cc1c[nH]cn1)C(=O)N[C@H](Cc1ccccc1)C(=O)N[C@@H](CCCNC(=N)N)C(=O)N[C@@H](Cc1c[nH]c2ccccc12)C(=O)N[C@H](C)C(=O)N[C@@H]1CCSSCCCNC(=O)[C@@H](C)NC(=O)[C@H](Cc2c[nH]c3ccccc23)NC(=O)[C@H](CCCNC(=N)N)NC(=O)[C@@H](Cc2ccccc2)NC(=O)[C@H](Cc2c[nH]cn2)NC1=O [Chem. 6, c[c[Cys-His-D-Phe-Arg-Trp-D-Ala- Cys]-His-D-Phe-Arg-Trp-D-Ala]] (Ac-H[dF]RW[dA][d(hCys)]H[dF]RW[dA]; linker 6-C via X1) | 0.19 | 0.06 | 39
9 | C[C@@H]1NC(=O)[C@@H]2CSSC[C@H](NC(=O)[C@H](Cc3c[nH]c4ccccc34)NC(=O)[C@H](CCCCN(C)C)NC(=O)[C@@H](Cc3ccccc3)NC(=O)[C@H](Cc3c[nH]cn3)NC1=O)C(=O)N[C@@H](C)C(=O)N[C@@H](Cc1c[nH]cn1)C(=O)N[C@H](Cc1ccccc1)C(=O)N[C@@H](CCCCN(C)C)C(=O)N[C@@H](Cc1c[nH]c3ccccc13)C(=O)N2 [Chem. 18, c[c[Cys-Ala-His-D-Phe-Lys(Me)2-Trp- Cys]-Ala-His-D-Phe-Lys(Me)2-Trp]] | 0.38 | 0.12 | 35
10 | C[C@@H]1NC(=O)[C@@H]2CSSC[C@H](NC(=O)[C@H](Cc3c[nH]c4ccccc34)NC(=O)[C@H](CCC(N)=O)NC(=O)[C@@H](Cc3ccccc3)NC(=O)[C@H](Cc3c[nH]cn3)NC1=O)C(=O)N[C@@H](C)C(=O)N[C@@H](CCCCN)C(=O)N[C@H](CCCCN)C(=O)N[C@@H](CCCCN)C(=O)N[C@@H](Cc1c[nH]c3ccccc13)C(=O)N2 [Chem. 57, c[c[Cys-Ala-His-D-Phe-Gln-Trp-Cys]- Ala-Lys-D-Lys-Lys-Trp]] (cyclo(AH[dF]QWCAK[dK]KWC); disulfide 6-12) | 0.21 | 0.19 | 55
11 | CC(C)[C@H]1NC(=O)[C@@H]2CSSC[C@H](NC(=O)[C@H](Cc3c[nH]c4ccccc34)NC(=O)[C@H](CCCNC(=N)N)NC(=O)[C@@H](Cc3ccccc3)NC(=O)[C@H](Cc3c[nH]cn3)NC1=O)C(=O)N[C@H](C(C)C)C(=O)N[C@@H](Cc1c[nH]cn1)C(=O)N[C@H](Cc1ccccc1)C(=O)N[C@@H](CCCNC(=N)N)C(=O)N[C@@H](Cc1c[nH]c3ccccc13)C(=O)N2 [Chem. 34, c[c[Cys-D-Val-His-D-Phe-Arg-Trp- Cys]-D-Val-His-D-Phe-Arg-Trp]] (cyclo(C[dV]H[dF]RWC[dV]H[dF]RW); disulfide 1-7) | 0.88 | 0.12 | 22
12 | C[C@@H]1NC(=O)[C@@H]2CSSC(C)(C)[C@H](NC(=O)[C@H](Cc3c[nH]c4ccccc34)NC(=O)[C@H](CCCNC(=N)N)NC(=O)[C@@H](Cc3ccccc3)NC(=O)[C@H](Cc3c[nH]cn3)NC1=O)C(=O)N[C@@H](C)C(=O)N[C@@H](Cc1c[nH]cn1)C(=O)N[C@H](Cc1ccccc1)C(=O)N[C@@H](CCCNC(=N)N)C(=O)N[C@@H](Cc1c[nH]c3ccccc13)C(=O)N2 [Chem. 63, c[c[Pen-Ala-His-D-Phe-Arg-Trp-Cys]- Ala-His-D-Phe-Arg-Trp]] | 0.08 | 0.02 | 42
13 | N=C(N)NCCC[C@@H]1NC(=O)[C@@H](Cc2ccccc2)NC(=O)[C@H](Cc2c[nH]cn2)NC(=O)CNC(=O)[C@@H]2CSSC[C@H](NC(=O)[C@H](Cc3c[nH]c4ccccc34)NC1=O)C(=O)NCC(=O)N[C@@H](Cc1c[nH]cn1)C(=O)N[C@H](Cc1ccccc1)C(=O)N[C@@H](CCCNC(=N)N)C(=O)N[C@@H](Cc1c[nH]c3ccccc13)C(=O)N2 [Chem. 2, c[c[Cys-Gly-His-D-Phe-Arg-Trp-Cys]- Gly-His-D-Phe-Arg-Trp]] (cyclo(CGH[dF]RWCGH[dF]RW); disulfide 1-7) | 0.07 | 0.01 | 154
14 | CC1(C)NC(=O)[C@@H]2CSSC[C@H](NC(=O)[C@H](Cc3c[nH]c4ccccc34)NC(=O)[C@H](CNC(=N)N)NC(=O)[C@@H](Cc3ccccc3)NC(=O)[C@H](Cc3c[nH]cn3)NC1=O)C(=O)NC(C)(C)C(=O)N[C@@H](Cc1c[nH]cn1)C(=O)N[C@H](Cc1ccccc1)C(=O)N[C@@H](CNC(=N)N)C(=O)N[C@@H](Cc1c[nH]c3ccccc13)C(=O)N2 [Chem. 43, c[c[Cys-Aib-His-D-Phe-AGP-Trp- Cys]-Aib-His-D-Phe-AGP-Trp]] (cyclo([Agp]WC[Aib]H[dF][Agp]WC[Aib]H[dF]); disulfide 3-9) | 2.61 | 0.44 | 107
